Key:
[1] = system: K562 cells, a human proerythroblast cell line; test: Hemoglobin production in K562 cells (fluorescence of the porphyrin ring); format: cell-based; details: Homo sapiens, K562, 144 h; 6 μM test compound, 3 + 3 days incubation; non-stimulated state without compound = 100; read-out: amount of hemoglobin, % of control (6 μM)
Procedure: K562 cells (obtained from ATCC), which is a human proerythroblast cell line, were inoculated at a concentration of 1×10^5 cells/1 mL in each well of a 24-well plate, using complete medium (RPMI-1640 medium containing 10% bovine fetal serum), and 1 μL of a test compound at a 1000-fold concentration was added to each well. Subsequently, the cells were incubated for 3 days in a CO2 incubator (37° C., 5% CO2). The medium was exchanged, and the cells were further incubated for 3 days. The cells were collected and counted. Subsequently, the amount of hemoglobin produced in the cells was determined by adjusting the number of cells to 3×10^5 cells, and measuring the fluorescence of the porphyrin ring. That is, the cells collected by centrifugation were suspended in 500 μL of 2 M oxalic acid, and were heated to boil for 30 minutes. The cells were cooled, and then the fluorescence intensity was measured by using a fluorescence microplate reader (Spectra MAX GeminiEM; Molecular Devices Corp.) ([…]). The amount of hemoglobin in a non-stimulated state where no compound was added was designated as 100-, and the amount of hemoglobin (% of control) produced as induced by each of the compounds was determined.

[2] = system: HepG2 cells derived from human liver cancer; test: EPO production in HepG2 cells (EPO ELISA of culture supernatant); format: cell-based; details: Homo sapiens; for activity at 3 µM: HepG2, 3 μM test compound, 48 hrs, 4% oxygen, non-stimulated state without compound = 100%, read-out: amount of EPO production, % of control (3 μM); for activity at 10 µM: HepG2, 48 h, final concentration 10 μM, non-stimulated state = 100%, read-out: enhancement of EPO production
Procedure: HepG2 cells derived from human liver cancer were inoculated in an amount of 5×10^4 cells per well on a 48-well plate, using minimum essential medium (MEM, Sigma-Aldrich Company) containing 10% bovine fetal serum. On the next day, the medium was exchanged with Dulbecco's modified eagle medium (DMEM (Sigma-Aldrich Company)) containing 10% bovine fetal serum without Phenol Red. Then, a test compound dissolved in DMSO was added thereto to obtain a final concentration of 3 μM or 10 μM, and the amount of medium was adjusted to 400 μL per well. The cells were incubated for 48 hrs in a CO2 incubator in which the oxygen concentration was adjusted to 4%, and then the culture supernatant was collected. The EPO concentration in the culture supernatant was immediately measured using an EPO ELISA kit (Roche Diagnostics GmbH). The method was carried out according to the operation manual.
The amount of EPO production in a non-stimulated state where no compounds were added, was designated as 100%, and the amount of EPO production (% of control) induced by each of the compounds was determined.

SMILES: CC(=O)N1c2ccc(C(=O)NN)cc2C(Nc2ccc(N3CCOCC3)cc2)CC1C (stereo not shown) [Compound 133, 1-Acetyl-4-[(4-morpholinophenyl)-amino]-2-methyl-1,2,3,4-tetrahydroquinoline-6-carbohydrazide]
- activity at 6 µM [1]: 136%
- activity at 3 µM [2]: 113%

SMILES: CC(=O)N1c2ccc(-c3n[nH]c(=O)o3)cc2C(Nc2ccc(N3CCOCC3)cc2)CC1C (stereo not shown) [Compound 134, 1-Acetyl-4-[(4-morpholinophenyl)-amino]-2-methyl-6-[1,3,4-oxadiazol-2(3H)-on-5-yl]-1,2,3,4-tetrahydroquinoline]
- activity at 6 µM [1]: 298%
- activity at 3 µM [2]: 157%

SMILES: CONC(=O)c1ccc2c(c1)C(Nc1ccc(N3CCOCC3)cc1)CC(C)N2C(C)=O (stereo not shown) [Compound 135, 1-Acetyl-4-[(4-morpholinophenyl)-amino]-N-methoxy-2-methyl-1,2,3,4-tetrahydroquinoline-6-carboxamide]
- activity at 6 µM [1]: 178%
- activity at 3 µM [2]: 124%

SMILES: CC(=O)N1c2ccccc2C(Nc2ccc3ocnc3c2)CC1C (stereo not shown) [Compound 136, 1-Acetyl-4-[(benzoxazol-5-yl)-amino]-2-methyl-1,2,3,4-tetrahydroquinoline]
- activity at 6 µM [1]: 136%
- activity at 3 µM [2]: 141%

SMILES: CC(=O)N1c2ccc(F)cc2C(Nc2ccc(C(=O)O)cc2)CC1C (stereo not shown) [Compound 137, 1-Acetyl-6-fluoro-4-[(4-carboxy-phenyl)amino]-2-methyl-1,2,3,4-tetrahydroquinoline]
- activity at 6 µM [1]: 190%
- activity at 3 µM [2]: 110%

SMILES: CNC(=O)c1ccc2c(c1)C(Oc1ccc(N3CCOCC3)cc1)CC(C)N2C(C)=O (stereo not shown) [Compound 140, 1-Acetyl-N,2-dimethyl-4-(4-morpholinophenoxy)-1,2,3,4-tetrahydroquinoline-6-carboxamide]
- activity at 6 µM [1]: 231%
- activity at 3 µM [2]: 124%

SMILES: CC(=O)N1c2ccc(C(N)=O)cc2C(Oc2ccc(Cl)cc2)CC1C (stereo not shown) [Compound 142, 1-Acetyl-4-(4-chlorophenoxy)-2-methyl-1,2,3,4-tetrahydro-quinoline-6-carboxamide]
- activity at 6 µM [1]: 478%
- activity at 3 µM [2]: 129%

SMILES: CC(=O)N1c2ccccc2C(Oc2ccc(NS(C)(=O)=O)cc2)CC1C (stereo not shown) [Compound 143, N-{4-[(1-acetyl-2-methyl-1,2,3,4-tetrahydroquinolin-4-yl)oxy]-phenyl}methanesulfonamide]
- activity at 6 µM [1]: 396%
- activity at 3 µM [2]: 130%

SMILES: CCOC(=O)c1ccc2c(c1)C(Nc1ccc(C3CCCCC3)cc1)CC(C)N2C(C)=O (stereo not shown) [Compound 144, Ethyl 1-Acetyl-4-[(4-cyclohexylphenyl)-amino]-2-methyl-1,2,3,4-tetrahydroquinoline-6-carboxylate]
- activity at 6 µM [1]: 338%
- activity at 3 µM [2]: 180%

SMILES: CC(=O)N1c2ccc(C(=O)O)cc2C(Nc2ccc(C3CCCCC3)cc2)CC1C (stereo not shown) [Compound 145, 1-Acetyl-4-[(4-cyclohexylphenyl)-amino]-2-methyl-1,2,3,4-tetrahydroquinoline-6-carboxylic acid]
- activity at 6 µM [1]: 414%
- activity at 10 µM [2]: 157%

SMILES: CNC(=O)c1ccc2c(c1)C(Nc1ccc(C3CCCCC3)cc1)CC(C)N2C(C)=O (stereo not shown) [Compound 146, 1-Acetyl-4-[(4-cyclohexylphenyl)-amino]-N,2-dimethyl-1,2,3,4-tetrahydroquinoline-6-carboxamide]
- activity at 6 µM [1]: 208%
- activity at 3 µM [2]: 152%

SMILES: CC(=O)N1c2ccc(C(N)=O)cc2C(Nc2ccc(C3CCCCC3)cc2)CC1C (stereo not shown) [Compound 147, 1-Acetyl-4-[(4-cyclohexylphenyl)-amino]-2-methyl-1,2,3,4-tetrahydroquinoline-6-carboxamide]
- activity at 6 µM [1]: 160%
- activity at 10 µM [2]: 130%

SMILES: CC(=O)N1c2ccc(C(=O)NCCOCCOCCOCCC(=O)OC(C)(C)C)cc2C(Nc2ccc(N3CCOCC3)cc2)CC1C (stereo not shown) [Compound 149, Tert-butyl 12-{1-Acetyl-2-methyl-4-[(4-morpholinophenyl)-amino]-1,2,3,4-tetrahydroquinoline-6-carboxamido}-4,7,10-trioxadodecanoate]
- activity at 6 µM [1]: 367%
- activity at 3 µM [2]: 190%

SMILES: COC(=O)CCCc1ccc(NC(=O)c2ccc3c(c2)C(Nc2ccc(N4CCOCC4)cc2)CC(C)N3C(C)=O)cc1 (stereo not shown) [Compound 151, Methyl 4-(4-{1-Acetyl-2-methyl-4-[(4-morpholinophenyl)-amino]-1,2,3,4-tetrahydroquinoline-6-carboxamido}-phenyl)butanoate]
- activity at 6 µM [1]: 341%
- activity at 3 µM [2]: 110%

SMILES: CC(=O)N1c2ccc(N3CCOCC3)cc2C(Oc2ccc(Cl)cc2)CC1C (stereo not shown) [Compound 152, 1-Acetyl-4-(4-chloro-phenoxy)-2-methyl-6-morpholino-1,2,3,4-tetrahydroquinoline]
- activity at 6 µM [1]: 337%
- activity at 3 µM [2]: 186%

SMILES: CC(=O)N1c2ccc(C(=O)O)cc2C(Nc2ccc(C3CCOCC3)cc2)CC1C (stereo not shown) [Compound 154, 1-Acetyl-2-methyl-4-{[4-(tetrahydro-2H-pyran-4-yl)-phenyl]amino}-1,2,3,4-tetrahydroquinoline-6-carboxylic acid]
- activity at 6 µM [1]: 320%
- activity at 3 µM [2]: 116%

SMILES: COC(=O)CCCCCNC(=O)c1ccc2c(c1)C(Nc1ccc(N3CCOCC3)cc1)CC(C)N2C(C)=O (stereo not shown) [Compound 157, Methyl 6-{1-Acetyl-2-methyl-4-[(4-morpholinophenyl)-amino]-1,2,3,4-tetrahydro-quinoline-6-carboxamido}-hexanoate]
- activity at 6 µM [1]: 396%
- activity at 10 µM [2]: 237%

SMILES: COC(=O)CCCCCNC(=O)c1ccc2c(c1)C(Nc1ccc(Cl)cc1)CC(C)N2C(C)=O (stereo not shown) [Compound 158, Methyl 6-{1-acetyl-4-[(4-chloro-phenyl)amino]-2-methyl-1,2,3,4-tetrahydroquin-oline-6-carboxamido}-hexanoate]
- activity at 6 µM [1]: 411%
- activity at 10 µM [2]: 248%

SMILES: CC(=O)N1c2ccc(N3CCN(S(C)(=O)=O)CC3)cc2C(Nc2ccc(N3CCOCC3)cc2)CC1C (stereo not shown) [Compound 160, 1-Acetyl-2-methyl-6-[4-(methylsulfonyl)piperazin-1-yl]-4-[(4-morpholino-phenyl)amino]-1,2,3,4-tetrahydroquinoline]
- activity at 6 µM [1]: 259%
- activity at 3 µM [2]: 190%

SMILES: CC(=O)N1c2ccc(N3CCOCC3)cc2C(Nc2ccc(N3CCOCC3)cc2)CC1C (stereo not shown) [Compound 161, 1-Acetyl-2-methyl-6-morpholino-4-[(4-morpholinophenyl)-amino]-1,2,3,4-tetrahydroquinoline]
- activity at 6 µM [1]: 308%
- activity at 3 µM [2]: 351%

SMILES: CCOC(=O)c1ccc2c(c1)C(Nc1ccc(-c3csc(C)n3)cc1)CC(C)N2C(C)=O (stereo not shown) [Compound 162, Ethyl 1-Acetyl-2-methyl-4-{[4-(2-methylthiazol-4-yl)-phenyl]amino}-1,2,3,4-tetrahydroquinoline-6-carboxylate]
- activity at 6 µM [1]: 316%
- activity at 3 µM [2]: 284%

SMILES: CC(=O)N1c2ccc(C(=O)O)cc2C(Nc2ccc(-c3csc(C)n3)cc2)CC1C (stereo not shown) [Compound 163, 1-Acetyl-2-methyl-4-{[4-(2-methylthiazol-4-yl)-phenyl]amino}-1,2,3,4-tetrahydroquinoline-6-carboxylic acid]
- activity at 6 µM [1]: 172%
- activity at 3 µM [2]: 128%

SMILES: CC(=O)N1c2ccc(C(N)=O)cc2C(Nc2ccc(-c3csc(C)n3)cc2)CC1C (stereo not shown) [Compound 164, 1-Acetyl-2-methyl-4-{[4-(2-methylthiazol-4-yl)-phenyl]amino}-1,2,3,4-tetrahydroquinoline-6-carboxamide]
- activity at 6 µM [1]: 367%
- activity at 3 µM [2]: 336%

SMILES: CNC(=O)c1ccc2c(c1)C(Nc1ccc(-c3csc(C)n3)cc1)CC(C)N2C(C)=O (stereo not shown) [Compound 165, 1-Acetyl-N,2-dimethyl-4-{[4-(2-methylthiazol-4-yl)phenyl]amino}-1,2,3,4-tetrahydroquinoline-6-carboxamide]
- activity at 6 µM [1]: 304%
- activity at 10 µM [2]: 159%

SMILES: CC(=O)N1c2ccc(C(=O)NC(=O)c3ccccc3)cc2C(Nc2ccc(N3CCOCC3)cc2)CC1C (stereo not shown) [Compound 166, 1-Acetyl-N-benzoyl-2-methyl-4-[(4-morpholinophenyl)-amino]-1,2,3,4-tetrahydroquinoline-6-carboxamide]
- activity at 6 µM [1]: 282%
- activity at 3 µM [2]: 185%

SMILES: CCOC(=O)c1ccc2c(c1)C(Nc1ccc(-c3ncco3)cc1)CC(C)N2C(C)=O (stereo not shown) [Compound 167, Ethyl 1-Acetyl-2-methyl-4-{[4-(oxazol-2-yl)phenyl]-amino}-1,2,3,4-tetrahydroquinoline-6-carboxylate]
- activity at 6 µM [1]: 227%
- activity at 10 µM [2]: 142%
